# Data published in patent US5362634A, “Process for producing A83543 compounds” (DowElanco, priority 1991, dated 1994).
# Like-named read-outs stand apart in the source and are kept apart here.
# Columns and labels:
# [1] = test system: SAW (Southern armyworm) larvae; assay: Topical test against SAW larvae; assay type: in vivo; conditions: Spodoptera eridania
# Description: (§1) Each test compound was formulated by dissolving the compound in an acetone/alcohol (1:1) mixture containing 23 g of "Toximul R" (sulfonate/nonionic emulsifier blend) and 13 g of "Toximul S" (sulfonate/nonionic emulsifier blend) per liter. These mixtures were then diluted with water to give the indicated concentrations.
# (§2) Additional insects were evaluated using similar formulations and evaluation procedures, with the exceptions noted.
# (§3) After standard exposure periods, percent mortality was evaluated. The following abbreviations are used:
# (§4) ^a Days between treatment and observation
# (§5) ^b Mean of replicates tested
# ^f Treated topically with 1 mL of formulated A83543A
# [2] = test system: SAW (Southern armyworm) larvae; assay: Foliar/bushbean test against SAW larvae; assay type: in vivo; conditions: Spodoptera eridania, foliar; for inhibition at 0.5 ppm: 0.50 ppm
# Description: as §1
# […] Other plants in the same treatment pot were left uninfested. The leaves were then sprayed with 5 mL of test solution using a DeVilbiss atomizing sprayer at 10 psi. Both surfaces of the leaves were covered until runoff and then allowed to dry for one hour. Two uninfested leaves were then excised and placed into a Petri dish containing Southern armyworm (Spodoptera eridania Cramer).
# as §2, §3, §4, §5
# imported cabbage worm = assay: Field trial, imported cabbage worm on sprouting broccoli; assay type: in vivo
# Description: (§6) A83543A was evaluated in field trials.
# adult stable fly = assay: Insecticidal assay in blood of sheep challenged with Haemonchus contortus, adult stable fly; assay type: in vivo; design: mortality: dose or concentration left out as unconfirmed; conditions: Stomoxys calcitrans, read-out: Percent Insecticide Mortality; for mortality at 1 mg/kg: iv, 1 × 1 mg/kg IV
# Description: (§7) Blood is drawn from the guinea pigs at 30 minutes except as noted, and the samples of blood are centrifuged. Dental wicks are saturated with the blood serum, and then exposed in Petri dishes to adult stable flies; blow fly larvae are exposed in test tubes. After 24 and 48 hours, the insects are examined, and the number of dead are counted. The results of the tests are recorded as the percent of the insects which are killed.
# Tests are carried out in sheep using the test method described supra in the Guinea Pig Test description. […]
# ^b Amount (mg/kg) times number of doses administered
# ^c Times postadministration at which blood is drawn
# blow fly larvae (LBF) = assay: Sheep systemic test, blow fly larvae; assay type: in vivo
# Description: as §7
# Tests are carried out in sheep using the test method described supra in the Guinea Pig Test description. Test compound is administered by intraperitoneal or intravenous injection or intraruminally; blood samples are drawn at 24 hours in these tests.
# cabbage looper = assay: Field trial, cabbage looper on sprouting broccoli; assay type: in vivo
# Description: as §6
# [3] = test system: first instar yellow fever mosquito larvae; assay: In vitro mosquito larvicide test, first instar; conditions: Aedes aegypti, 24 h, lowest concentration with 100% inhibition after 24 hr, microtiter plates, read-out: Minimal Inhibitory Concentration
# Description: The A83543 components were active against yellow fever mosquito (Aedes aegypti) larvae in standard in vitro mosquito larvicide tests.
# SAW (Southern armyworm) = assay: Greenhouse test against SAW; assay type: in vivo; conditions: Spodoptera eridania, squash
# Description: as §1
# Two-spotted spider mites (Tetranychus urticae Koch) and cotton or melon aphids (Aphis gossypii Glover) were introduced on squash cotyledons and allowed to establish on both leaf surfaces. Other plants in the same treatment pot were left uninfested. The leaves were then sprayed with 5 mL of test solution using a DeVilbiss atomizing sprayer at 10 psi. Both surfaces of the leaves were covered until runoff and then allowed to dry for one hour. Two uninfested leaves were then excised and placed into a Petri dish containing Southern armyworm (Spodoptera eridania Cramer).
# After standard exposure periods, percent mortality was evaluated.
# [4] = 0 h, Day 0, A, 24-hour exposure
# [5] = 0 h, Day 0, A, 48-hour exposure
# [6] = 24 h, Day 1, A, 24-hour exposure
# [7] = 24 h, Day 1, A, 48-hour exposure
# [8] = 48 h, Day 2, A, 24-hour exposure
# [9] = 72 h, Day 3, A, 24-hour exposure
# [10] = 72 h, Day 3, A, 48-hour exposure
# [11] = 120 h, Day 5, A, 48-hour exposure
smiles,measurement,setting,value
CC[C@H]1CCC[C@H](O[C@H]2CC[C@H](N(C)C)[C@@H](C)O2)[C@@H](C)C(=O)C2=C[C@@H]3[C@@H](C=C[C@@H]4C[C@@H](O[C@@H]5O[C@@H](C)[C@H](OC)[C@@H](OC)[C@H]5OC)C[C@@H]34)[C@@H]2CC(=O)O1 [A83543A],inhibition at 1 ppm,"[1]; 24 h, second instar, 1 day",0%
same,inhibition at 5 ppm,"[1]; 24 h, second instar, 1 day",0%
same,inhibition at 10 ppm,"[1]; 24 h, second instar, 1 day",0%
same,inhibition at 50 ppm,"[1]; 24 h, second instar, 1 day",80%
same,inhibition at 100 ppm,"[1]; 24 h, second instar, 1 day",100%
same,inhibition at 10 ppm,"[1]; 48 h, fifth instar, 2 days",0%
same,inhibition at 50 ppm,"[1]; 48 h, fifth instar, 2 days",0%
same,inhibition at 1 ppm,"[1]; 48 h, third instar, 2 days",0%
same,inhibition at 5 ppm,"[1]; 48 h, third instar, 2 days",0%
same,inhibition at 10 ppm,"[1]; 48 h, third instar, 2 days",13.3%
same,inhibition at 50 ppm,"[1]; 48 h, third instar, 2 days",73.3%
same,inhibition at 1 ppm,"[1]; 72 h, neonate, 3 days",0%
same,inhibition at 5 ppm,"[1]; 72 h, neonate, 3 days",60%
same,inhibition at 10 ppm,"[1]; 72 h, neonate, 3 days",100%
same,inhibition at 50 ppm,"[1]; 72 h, neonate, 3 days",100%
same,inhibition at 100 ppm,"[1]; 72 h, neonate, 3 days",100%
same,inhibition at 1 ppm,"[2]; 72 h, neonate, 3 days",10%
same,inhibition at 5 ppm,"[2]; 72 h, neonate, 3 days",40%
same,inhibition at 10 ppm,"[2]; 72 h, neonate, 3 days",100%
same,inhibition at 50 ppm,"[2]; 72 h, neonate, 3 days",100%
same,inhibition at 100 ppm,"[2]; 72 h, neonate, 3 days",100%
same,inhibition at 10 ppm,"[2]; 96 h, fifth instar, 4 days",0%
same,inhibition at 50 ppm,"[2]; 96 h, fifth instar, 4 days",0%
same,inhibition at 0.5 ppm,"[2]; 96 h, neonate, 4 days",0%
same,inhibition at 1 ppm,"[2]; 96 h, neonate, 4 days",66.7%
same,inhibition at 5 ppm,"[2]; 96 h, neonate, 4 days",100%
same,inhibition at 10 ppm,"[2]; 96 h, neonate, 4 days",100%
same,inhibition at 50 ppm,"[2]; 96 h, neonate, 4 days",100%
same,inhibition at 1 ppm,"[2]; 96 h, second instar, 4 days",0%
same,inhibition at 5 ppm,"[2]; 96 h, second instar, 4 days",0%
same,inhibition at 10 ppm,"[2]; 96 h, second instar, 4 days",80%
same,inhibition at 50 ppm,"[2]; 96 h, second instar, 4 days",80%
same,inhibition at 100 ppm,"[2]; 96 h, second instar, 4 days",100%
same,inhibition at 0.5 ppm,"[2]; 96 h, third instar, 4 days",0%
same,inhibition at 1 ppm,"[2]; 96 h, third instar, 4 days",0%
same,inhibition at 5 ppm,"[2]; 96 h, third instar, 4 days",40%
same,inhibition at 10 ppm,"[2]; 96 h, third instar, 4 days",100%
same,inhibition at 50 ppm,"[2]; 96 h, third instar, 4 days",100%
same,activity in field trials,imported cabbage worm,showed activity
same,mortality,adult stable fly; [4],0%
same,mortality,adult stable fly; [5],0%
same,mortality,"adult stable fly; 5 h, A, 24-hour exposure",10%
same,mortality,"adult stable fly; 24 h, 35 min, A, 24-hour exposure",10%
same,mortality,"adult stable fly; 24 h, 5 hr, A, 24-hour exposure",10%
same,mortality,"adult stable fly; 24 h, Day 0, A, 24-hour exposure",0%
same,mortality,adult stable fly; [6],10%
same,mortality at 50 mg/kg,adult stable fly; [6],0%
same,mortality,adult stable fly; [7],90%
same,mortality at 50 mg/kg,adult stable fly; [7],60%
same,mortality at 2 mg/kg,"adult stable fly; 48 h, 25 × 2 mg/kg IR, Day 2, A, 24-hour exposure",20%
same,mortality,adult stable fly; [8],20%
same,mortality,adult stable fly; [9],0%
same,mortality,adult stable fly; [10],70%
same,mortality,adult stable fly; [11],30%
same,mortality at 50 mg/kg,"adult stable fly; ip, 0 h, Day 0, A, 48-hour exposure",20%
same,mortality at 50 mg/kg,"adult stable fly; ip, 35 min, A, 48-hour exposure",0%
same,mortality at 50 mg/kg,"adult stable fly; ip, 5 h, A, 48-hour exposure",10%
same,mortality at 50 mg/kg,"adult stable fly; ip, 24 h, 35 min, A, 24-hour exposure",0%
same,mortality at 50 mg/kg,"adult stable fly; ip, 24 h, 5 hr, A, 24-hour exposure",0%
same,mortality at 50 mg/kg,"adult stable fly; ip, 24 h, Day 0, A, 24-hour exposure",0%
same,mortality at 50 mg/kg,"adult stable fly; ip, 24 h, Day 1, A, 24-hour exposure",0%
same,mortality at 50 mg/kg,"adult stable fly; ip, 24 h, Day 1, A, 48-hour exposure",0%
same,mortality at 50 mg/kg,"adult stable fly; ip, 24 h, Day 2, A, 24-hour exposure",10%
same,mortality at 50 mg/kg,"adult stable fly; ip, 24 h, Day 3, A, 24-hour exposure",0%
same,mortality at 50 mg/kg,"adult stable fly; ip, 24 h, Day 4, A, 24-hour exposure",10%
same,mortality at 50 mg/kg,"adult stable fly; ip, 24 h, Day 5, A, 24-hour exposure",0%
same,mortality at 50 mg/kg,"adult stable fly; ip, 48 h, Day 2, A, 48-hour exposure",30%
same,mortality at 50 mg/kg,"adult stable fly; ip, 72 h, Day 3, A, 48-hour exposure",10%
same,mortality at 50 mg/kg,"adult stable fly; ip, 96 h, Day 4, A, 48-hour exposure",20%
same,mortality at 50 mg/kg,"adult stable fly; ip, 120 h, Day 5, A, 48-hour exposure",0%
same,mortality at 1 mg/kg,adult stable fly; [4],0%
same,mortality at 1 mg/kg,adult stable fly; [5],0%
same,mortality at 1 mg/kg,"adult stable fly; 35 min, 35 min, A, 24-hour exposure",10%
same,mortality at 1 mg/kg,"adult stable fly; 35 min, 35 min, A, 48-hour exposure",10%
same,mortality at 1 mg/kg,"adult stable fly; 5 h, 5 hr, A, 24-hour exposure",0%
same,mortality at 1 mg/kg,"adult stable fly; 5 h, 5 hr, A, 48-hour exposure",20%
same,mortality at 1 mg/kg,adult stable fly; [6],0%
same,mortality at 1 mg/kg,adult stable fly; [7],0%
same,mortality at 1 mg/kg,adult stable fly; [8],0%
same,mortality at 1 mg/kg,"adult stable fly; 48 h, Day 2, A, 48-hour exposure",0%
same,mortality at 1 mg/kg,adult stable fly; [9],0%
same,mortality at 1 mg/kg,adult stable fly; [10],0%
same,mortality at 1 mg/kg,"adult stable fly; 96 h, Day 4, A, 24-hour exposure",0%
same,mortality at 1 mg/kg,"adult stable fly; 96 h, Day 4, A, 48-hour exposure",0%
same,mortality at 1 mg/kg,"adult stable fly; 120 h, Day 5, A, 24-hour exposure",0%
same,mortality at 1 mg/kg,adult stable fly; [11],0%
same,LBF activity (% mortality),blow fly larvae (LBF); 1.0 mg/kg IV,25%
same,LBF activity (% mortality),"blow fly larvae (LBF); 10 mg/kg IP, 1440 min",0%
same,LBF activity (% mortality),"blow fly larvae (LBF); 10 mg/kg IR, 1440 min",0%
same,LBF activity (% mortality),"blow fly larvae (LBF); 30 mg/kg IP, 1440 min",80%
same,LBF activity (% mortality),"blow fly larvae (LBF); 30 mg/kg IR, 1440 min",100%
same,LBF activity (% mortality),"blow fly larvae (LBF); 50 mg/kg IP, 1440 min",20%
same,LBF activity (% mortality),"blow fly larvae (LBF); 50 mg/kg IR, 1440 min",100%
same,LBF activity (% mortality),"blow fly larvae (LBF); 2 × 25 mg/kg IR, 1440 min",100%
same,activity in field trials,cabbage looper,showed activity
same,MIC,[3],0.016 µg/mL
same,MIC,[3]; second of two lots,0.031 µg/mL
same,inhibition at 1.9 ppm,SAW (Southern armyworm); 1.9 ppm,0%
same,inhibition at 3.9 ppm,SAW (Southern armyworm); 3.9 ppm,20%
same,inhibition at 7.8 ppm,SAW (Southern armyworm); 7.8 ppm,20%
same,inhibition at 15.63 ppm,SAW (Southern armyworm); 15.63 ppm,40%
same,inhibition at 31.25 ppm,SAW (Southern armyworm); 31.25 ppm,55%
same,inhibition at 62.5 ppm,SAW (Southern armyworm); 62.5 ppm,100%
same,inhibition at 125 ppm,SAW (Southern armyworm); 125 ppm,100%
same,inhibition at 250 ppm,SAW (Southern armyworm); 250 ppm,100%
